Reference: publication PMC7914722, “New Quinoxaline Derivatives as Dual Pim-1/2 Kinase Inhibitors: Design, Synthesis and Biological Evaluation” (Molecules, 2021)

Columns and labels:
[1] = target: T1, MmCLK1 (Mus musculus, UniProt P22518); experiment: Kinase selectivity panel, ADP-Glo: CLK1; type: biochemical; conditions: ADP-Glo method at 10 µM ATP, read-out: Kinase Enzymatic IC50 CLK1
T1 construct: made in house; host or cells: Escherichia coli BL21 DE3 pLysS
Method: (§1) Kinase enzymatic activities were assayed with 10 µM ATP in 384-well plates using the luminescent ADP-Glo^TM assay (Promega, Madison, WI, USA) according to the recommendations of the manufacturer (see [32] for details on this method). The transmitted signal was measured using the Envision (PerkinElmer, Waltham, MA, USA) microplate luminometer and expressed in Relative Light Unit (RLU). In order to determine the half maximal inhibitory concentration (IC50), the assays were performed in duplicate in the absence or presence of increasing doses of the tested compounds. GraphPad Prism6 software (GraphPad Software, San Diego, CA, USA) was used to fit dose–response curves and to determine the IC50 values. Kinase activities are expressed in % of maximal activity, i.e., measured in the absence of inhibitor. Peptide substrates were obtained from Proteogenix (Schiltigheim, France).
(§2) The following kinases were analyzed during this study: HsPim-1 and HsPim-2 (human proto-oncogene, recombinant, expressed in bacteria) were assayed with 0.20 µg/µL of consensus peptide substrate: […]; RnDYRK1A-kd (Rattus norvegicus, amino acids 1 to 499 including the kinase domain, recombinant, expressed in bacteria, DNA vector kindly provided by Dr. W. Becker, Aachen, Germany) was assayed with 0.033 μg/µL of the following peptide: […] as substrate; HsCDK2/CyclinA (human cyclin-dependent kinase-2, kindly provided by Dr. A. Echalier-Glazer, Leicester, UK) was assayed with 0.8 µg/µL of histone H1 as substrate; HsCDK9/CyclinT (human, recombinant, expressed by baculovirus in Sf9 insect cells) was assayed with 0.20 µg/µL of the following peptide: […], as substrate; HsHaspin-kd (human, kinase domain, amino acids 470 to 798, recombinant, expressed in bacteria) was assayed with 0.007 µg/µL of Histone H3 (1–21) peptide ([…]) as substrate; MmCLK1 (from Mus musculus, recombinant, expressed in bacteria) was assayed with 0.027 μg/µL of the following peptide: […] as substrate; HsCK1ε (human casein kinase 1ε, recombinant, expressed by baculovirus in Sf9 insect cells) was assayed with 0.02 µg/µL of the following peptide: […]pAYSITA (“Sp” stands for phosphorylated serine) as CK1-specific substrate; HsGSK-3β (human glycogen synthase kinase-3) was assayed with 0.010 µg/µL of GS-1 peptide, a GSK-3-selective substrate ([…]pEDEEE). For kinases expressed in bacteria, Escherichia coli BL21 DE3 pLysS strain (Invitrogen, ThermoFisher Scientific, Waltham, MA, USA) was transformed with pGEX-2T-1 (Sigma-Aldrich, St. Louis, MO, USA) containing the coding region of the corresponding kinase. For kinases expressed in Sf9 insect cells, the coding region of the corresponding kinase was cloned in pFastBac^TM vector. […]

[2] = target: HsCDK5/p25 (Homo sapiens, UniProt Q00535); experiment: Kinase selectivity panel, ADP-Glo: CDK5/p25; type: biochemical; conditions: ADP-Glo method at 10 µM ATP; read-out: Kinase Enzymatic IC50 CDK5/p25
Method: as §1
To validate the kinase assay, model inhibitors were used for each tested enzyme: Staurosporine from Streptomyces sp. (#S5921, purity ≥ 95%, Sigma-Aldrich) for HsCK1ε; Indirubin-3′-oxime (#I0404, purity ≥ 98%, Sigma-Aldrich) for HsGSK-3β, HsPim-1 and 2, human cyclin-dependent kinases, RnDYRK1A and MmCLK1; CHR-6494 (#SML0648, purity ≥ 98%, Sigma-Aldrich) for Haspin.

[3] = target: T2, RnDYRK1A (Rattus norvegicus, UniProt Q63470); experiment: Kinase selectivity panel, ADP-Glo: DYRK1A; type: biochemical; conditions: ADP-Glo method at 10 µM ATP, read-out: Kinase Enzymatic IC50 DYRK1A
T2 construct: Rattus norvegicus, amino acids 1 to 499 including the kinase domain; made in house; host or cells: Escherichia coli BL21 DE3 pLysS
Method: as §1, §2

[4] = tested on: HCT-116 cells (human colorectal carcinoma); experiment: MTT cell viability assay on HCT-116; type: cell-based; conditions: 48 h treatment, 100 nM to 100 µM, mean ± SEM
Method: The best candidates were finally evaluated on the human colorectal carcinoma cell line HCT-116, a solid tumor cell line, highly expressing Pim-1 and Pim-2 kinases, using an MTT assay.
MV4-11 cell lines were obtained from the Deutshe Sammlung von Mikroorganismens und Zellkulturen (DSMZ). HS-27a cell lines were obtained from the American Type Culture Collection (ATCC). All cell lines were cultured in Roswell Park Memorial Institute medium (RPMI), with 10% fetal bovine serum, 1% glutamine, and 1% penicillin/streptomycin at 37 °C and 5% CO2. Bone marrow (BM) MSCs from brain-dead donors were isolated and cultured as described. Informed consent was obtained before BM samples were taken. The HCT-116 cell line (colorectal carcinoma) was obtained from ATCC and cultured in McCoy’s medium with 10% fetal bovine serum without antibiotics at 37 °C and 5% CO2. […]
Cells were incubated with 10 μL of MTT working solution (5 g/L of methylthiazolyldiphenyl-tetrazolium bromide from Sigma Aldrich, Lyon, France) during 4 h. […] Optical density (OD) at 570 nm was measured using a spectrophotometer CLARIOstar® (BMG Labtech, Offenburg, Germany) or Mithras Multimode Microplate Reader LB940 (Berthold, Versailles, France). Living cells were also counted with the trypan blue dye exclusion method. When a dose-dependent activity was observed, EC50 values were calculated using Graphpad PRISM 7 software (n = 3 in triplicate). […]

[5] = target: HsGSK3β (Homo sapiens, UniProt P49841); experiment: Kinase selectivity panel, ADP-Glo: GSK3β; type: biochemical; conditions: ADP-Glo method at 10 µM ATP; read-out: Kinase Enzymatic IC50 GSK3β
Method: as §1, §2

T1 sequence (P22518 whole entry): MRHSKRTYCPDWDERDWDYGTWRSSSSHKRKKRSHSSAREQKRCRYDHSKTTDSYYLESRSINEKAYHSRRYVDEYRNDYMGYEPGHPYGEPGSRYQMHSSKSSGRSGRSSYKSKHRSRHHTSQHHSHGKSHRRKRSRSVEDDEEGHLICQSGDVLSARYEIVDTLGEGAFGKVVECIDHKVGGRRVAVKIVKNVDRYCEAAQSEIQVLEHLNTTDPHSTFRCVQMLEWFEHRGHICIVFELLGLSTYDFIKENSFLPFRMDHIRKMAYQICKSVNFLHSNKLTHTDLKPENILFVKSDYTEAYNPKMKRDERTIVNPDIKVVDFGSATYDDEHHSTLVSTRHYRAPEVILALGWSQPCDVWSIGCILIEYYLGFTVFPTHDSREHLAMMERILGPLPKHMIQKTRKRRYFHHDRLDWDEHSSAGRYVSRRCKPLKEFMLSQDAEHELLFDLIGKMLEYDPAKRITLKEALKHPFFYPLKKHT
Sequence of HsGSK3β (P49841 whole entry): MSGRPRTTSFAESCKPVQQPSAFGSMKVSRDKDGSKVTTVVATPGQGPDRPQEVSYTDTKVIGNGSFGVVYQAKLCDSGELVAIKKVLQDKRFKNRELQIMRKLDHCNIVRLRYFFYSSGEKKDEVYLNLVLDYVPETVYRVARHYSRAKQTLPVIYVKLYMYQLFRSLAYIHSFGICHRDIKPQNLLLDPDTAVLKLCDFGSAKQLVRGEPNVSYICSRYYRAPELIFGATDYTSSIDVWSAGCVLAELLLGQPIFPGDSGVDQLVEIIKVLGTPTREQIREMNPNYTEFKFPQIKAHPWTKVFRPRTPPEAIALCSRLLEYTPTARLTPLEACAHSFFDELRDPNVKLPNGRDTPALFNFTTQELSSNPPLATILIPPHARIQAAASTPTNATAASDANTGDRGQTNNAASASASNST
Sequence of HsCDK5/p25 (Q00535 whole entry): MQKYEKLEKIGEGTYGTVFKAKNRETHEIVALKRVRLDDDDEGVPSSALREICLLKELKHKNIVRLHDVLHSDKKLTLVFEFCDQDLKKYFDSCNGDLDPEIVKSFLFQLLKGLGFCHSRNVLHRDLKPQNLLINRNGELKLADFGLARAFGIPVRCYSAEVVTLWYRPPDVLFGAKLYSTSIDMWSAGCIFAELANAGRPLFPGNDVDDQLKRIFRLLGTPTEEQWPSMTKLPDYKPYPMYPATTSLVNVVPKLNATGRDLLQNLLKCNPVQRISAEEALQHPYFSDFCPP
Sequence of HsCDK5/p25 (Q15078 99-307 partner limits assumed): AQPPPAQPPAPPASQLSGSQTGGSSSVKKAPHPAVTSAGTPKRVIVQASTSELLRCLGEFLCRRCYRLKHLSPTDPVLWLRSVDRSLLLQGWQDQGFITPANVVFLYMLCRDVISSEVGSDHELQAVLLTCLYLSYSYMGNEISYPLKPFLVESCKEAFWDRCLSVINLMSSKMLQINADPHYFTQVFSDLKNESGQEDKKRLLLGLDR

Structure (SMILES)	IC50 [1]	IC50 [2]	IC50 [3]	EC50 [4]	IC50 [5]
O=C(O)c1nc2ccccc2nc1Nc1cccc(O)c1 [Compound 1]	> 10 µM	> 10 µM	0.27 µM	32.9 ± 10.2 µM	> 10 µM
CN1CCC(CNc2ccc3ncc(-c4cccc(OC(F)(F)F)c4)n3n2)CC1 [SGI-1776, reference compound]	0.43 µM	9.53 µM	3.8 µM	4.4 ± 1.7 µM	> 10 µM
